Data reported in patent publication US4335249A, “Herbicidal diphenyl ethers, sulfides, sulfoxides and sulfones” (Rohm and Haas Company, priority 1976, dated 1982).

Experiments:
Assay type in all cases: in vivo
[1] = test system: velvetleaf (Abutilon theophrasti); assay: Preemergence herbicidal activity, velvetleaf; conditions: Pre, 2 lb/A; for pest or weed control at 2241.7 g/ha: Abutilon theophrasti, pre-emergence, 336 h
Procedure: (§1) Using the procedure described below, compounds of the invention are evaluated for control of several of the following plant species:
(§2) The following est procedure is employed. Seeds of selected crops and weeds are planted in soil in flats. For preemergence tests, the flats are treated with the test compound immediately after the planting. For postemergence tests, the seeds are allowed to germinate, and after two weeks the flats are treated with the test compound. The compound to be evaluated is dissolved in acetone, diluted with water, and sprayed over the flats using a carrier volume equivalent to 50 gallons per acre at the rate of application (pounds per acre, lb/A.) specified in the tables. About two weeks after the application of the test compound, the state of growth of the plants is observed and the phytotoxic effect of the compound is evaluated. Tables III and IV give the average percent control achieved by test compounds in terms of the percent of the plants which are killed by the compounds.

[2] = test system: tomato (Lycopersicon esculentum); assay: Preemergence herbicidal activity, tomato; conditions: Pre, 2 lb/A; for pest or weed control at 2241.7 g/ha: Solanum lycopersicum, pre-emergence, 336 h
Procedure: as §1, §2

[3] = test system: morningglory (Ipomoca spp.); assay: Postemergence herbicidal activity, morningglory; conditions: 2 lb/A; for pest or weed control at 2241.7 g/ha: Ipomoea, post-emergence, 336 h
Procedure: as §1, §2

[4] = test system: marigold (Tagetes spp.); assay: Preemergence herbicidal activity, marigold; conditions: 2 lb/A; for pest or weed control at 2241.7 g/ha: pre-emergence, 336 h
Procedure: as §1, §2

[5] = test system: yellow nutsedge (Cyperus esculentus); assay: Preemergence herbicidal activity, yellow nutsedge; conditions: 2 lb/A; for pest or weed control at 2241.7 g/ha: Cyperus, pre-emergence, 336 h
Procedure: as §1, §2

[6] = test system: cocklebur (Xanthium pensylvanicum); assay: Postemergence herbicidal activity, cocklebur; conditions: 2 lb/A; for pest or weed control at 2241.7 g/ha: Xanthium strumarium, post-emergence, 336 h
Procedure: as §1, §2

[7] = test system: wild oats (Avena fatua); assay: Preemergence herbicidal activity, wild oats; conditions: Pre, 2 lb/A; for pest or weed control at 2241.7 g/ha: Avena fatua, pre-emergence, 336 h, read-out: % control, Wild oat
Procedure: as §1, §2

[8] = test system: barnyardgrass (Echinochloa crusgalli); assay: Postemergence herbicidal activity, barnyardgrass; conditions: Post, 2 lb/A; for pest or weed control at 2241.7 g/ha: Echinochloa crus-galli, post-emergence, 336 h
Procedure: as §1
(§3) The following est procedure is employed. Seeds of selected crops and weeds are planted in soil in flats. For preemergence tests, the flats are treated with the test compound immediately after the planting. For postemergence tests, the seeds are allowed to germinate, and after two weeks the flats are treated with the test compound. The compound to be evaluated is dissolved in acetone, diluted with water, and sprayed over the flats using a carrier volume equivalent to 50 gallons per acre at the rate of application (pounds per acre, lb/A.) specified in the tables.

[9] = test system: morningglory (Ipomoca spp.); assay: Preemergence herbicidal activity, morningglory; conditions: 2 lb/A; for pest or weed control at 2241.7 g/ha: Ipomoea, pre-emergence, 336 h
Procedure: as §1, §2

[10] = test system: downybrome (Bromus tectorum); assay: Preemergence herbicidal activity, downybrome; conditions: Pre, 2 lb/A; for pest or weed control at 2241.7 g/ha: Bromus tectorum, pre-emergence, 336 h
Procedure: as §1, §2

[11] = test system: foxtail (Setaria spp.); assay: Preemergence herbicidal activity, foxtail; conditions: Pre, 2 lb/A; for pest or weed control at 2241.7 g/ha: Setaria, pre-emergence, 336 h
Procedure: as §1, §2

[12] = test system: barnyardgrass (Echinochloa crusgalli); assay: Preemergence herbicidal activity, barnyardgrass; conditions: Pre, 2 lb/A; for pest or weed control at 2241.7 g/ha: Echinochloa crus-galli, pre-emergence, 336 h
Procedure: as §1, §3

[13] = test system: marigold (Tagetes spp.); assay: Postemergence herbicidal activity, marigold; conditions: 2 lb/A; for pest or weed control at 2241.7 g/ha: post-emergence, 336 h
Procedure: as §1, §2

[14] = test system: wild oats (Avena fatua); assay: Postemergence herbicidal activity, wild oats; conditions: Post, 2 lb/A; for pest or weed control at 2241.7 g/ha: Avena fatua, post-emergence, 336 h, read-out: % control, Wild oat
Procedure: as §1, §2

[15] = test system: velvetleaf (Abutilon theophrasti); assay: Postemergence herbicidal activity, velvetleaf; conditions: 2 lb/A; for pest or weed control at 2241.7 g/ha: Abutilon theophrasti, post-emergence, 336 h
Procedure: as §1, §3

[16] = test system: foxtail (Setaria spp.); assay: Postemergence herbicidal activity, foxtail; conditions: Post, 2 lb/A; for pest or weed control at 2241.7 g/ha: Setaria, post-emergence, 336 h
Procedure: as §1, §2

[17] = test system: yellow nutsedge (Cyperus esculentus); assay: Postemergence herbicidal activity, yellow nutsedge; conditions: 2 lb/A; for pest or weed control at 2241.7 g/ha: Cyperus, post-emergence, 336 h
Procedure: as §1, §2

[18] = test system: tomato (Lycopersicon esculentum); assay: Postemergence herbicidal activity, tomato; conditions: Post, 2 lb/A; for pest or weed control at 2241.7 g/ha: Solanum lycopersicum, post-emergence, 336 h
Procedure: as §1, §2

[19] = test system: cocklebur (Xanthium pensylvanicum); assay: Preemergence herbicidal activity, cocklebur; conditions: 2 lb/A; for pest or weed control at 2241.7 g/ha: Xanthium strumarium, pre-emergence, 336 h
Procedure: as §1, §2

[20] = test system: downybrome (Bromus tectorum); assay: Postemergence herbicidal activity, downybrome; conditions: Post, 2 lb/A; for pest or weed control at 2241.7 g/ha: Bromus tectorum, post-emergence, 336 h
Procedure: as §1, §2

| Compound | pest or weed control at 2241.7 g/ha [1] [%] | pest or weed control at 2241.7 g/ha [2] [%] | pest or weed control at 2241.7 g/ha [3] [%] | pest or weed control at 2241.7 g/ha [4] [%] | pest or weed control at 2241.7 g/ha [5] [%] | pest or weed control at 2241.7 g/ha [6] [%] | pest or weed control at 2241.7 g/ha [7] [%] | pest or weed control at 2241.7 g/ha [8] [%] | pest or weed control at 2241.7 g/ha [9] [%] | pest or weed control at 2241.7 g/ha [10] [%] | pest or weed control at 2241.7 g/ha [11] [%] | pest or weed control at 2241.7 g/ha [12] [%] | pest or weed control at 2241.7 g/ha [13] [%] | pest or weed control at 2241.7 g/ha [14] [%] | pest or weed control at 2241.7 g/ha [15] [%] | pest or weed control at 2241.7 g/ha [16] [%] | pest or weed control at 2241.7 g/ha [17] [%] | pest or weed control at 2241.7 g/ha [18] [%] | pest or weed control at 2241.7 g/ha [19] [%] | pest or weed control at 2241.7 g/ha [20] [%] | further results |
| --- | --- | --- | --- | --- | --- | --- | --- | --- | --- | --- | --- | --- | --- | --- | --- | --- | --- | --- | --- | --- | --- |
| CCOC(=O)C(C)Oc1cccc(Oc2ccc(C(F)(F)F)cc2Cl)c1 (stereo not drawn) [Example 2] | 100 | 100 | 100 | 90 | 0 | 90 | 20 | 60 | 0 | 0 | 100 | 30 | 90 | 50 | 100 | 50 | 0 | 100 | 0 | 40 | – |
| CCOC(=O)C=CCOc1ccc(Oc2ccc(C(F)(F)F)cc2Cl)cc1 [Example 30] | 0 | 0 | 0 | 0 | 0 | 0 | 0 | 0 | 0 | 0 | 60 | 60 | 0 | 30 | 0 | 100 | 0 | 30 | 0 | 0 | – |
| CC(Oc1ccc(Oc2ccc(C(F)(F)F)cc2Cl)cc1)C(=O)O (stereo not drawn) [Example 16] | – | – | – | – | – | – | – | – | – | – | – | – | – | – | – | – | – | – | – | – | % control, Velvetleaf [1]: 0%; % control, Tomato [2]: 0%; % control, Morningglory ([3]; Post): 0%; % control, Marigold ([4]; Pre): 0%; % control, Nutsedge ([5]; Pre): 0%; % control, Cocklebur ([6]; Post): 0%; % control, Wild oat [7]: 70%; % control, Barnyardgrass [8]: 100%; % control, Morningglory ([9]; Pre): 0%; % control, Downybrome [10]: 70%; % control, Foxtail [11]: 100%; % control, Barnyardgrass [12]: 100%; % control, Marigold ([13]; Post): 0%; % control, Wild oat [14]: 80%; % control, Velvetleaf ([15]; Post): 0%; % control, Foxtail [16]: 90%; % control, Nutsedge ([17]; Post): 0%; % control, Tomato [18]: 0%; % control, Cocklebur ([19]; Pre): 0%; % control, Downybrome [20]: 0% |
